Data: patent US9532967B2, “Use of phenethyl caffeate derivatives in the preparation of a medicament against tumor angiogenesis” (priority 2010, dated 2017)

Legend:
[1] = tested on: angiogenesis model by culturing stromal cells and vascular endothlial cells (ECs) together; test: Tumor angiogenesis mediated by pericytes (stromal cells co-cultured with vascular endothlial cells); assay type: cell-based; details: for Length of the formed vessel network (Total Tube Length, TL, n = 8): control 436; for effect on tumor angiogenesis mediated by pericytes: concentrations of 50-100 μM, result in words
Method: We constructed an angiogenesis model by culturing stromal cells and vascular endothlial cells (ECs) together. Stromal cells and endothlial cells were graciously provided by Vascular Biology Medical Center of Medical School of the State University in Indiana. The stromal cells were implanted into a cell culture dish, maintaining cell density of 6×10^6/cm^2, and ECs were implanted on the trophoblast cells of the stromal cells after the stromal cells were incubated in the EBM-2/5% FBS culture medium for 3 hours, with cell density of ECs reaching 1×10^6/cm^2. The two kinds of cells were co-cultured in EBM-2/5% FBS culture medium for six days, then the formation of tubular vessels was observed, and EC vessels were labeled through CD31 fluorescence staining and horseradish peroxidase staining.
Then, the inhibition of compounds phenethyl caffeate and 3,4-diacetyl phenethyl caffeate with concentrations of 50-100 μM on tumor angiogenesis mediated by pericytes was studied.

[2] = tested on: human hepatocellular carcinoma BEL-7402 cell lines; test: Growth of tumors of BALB/c nude mice inoculated with BEL-7402 cells in vivo; details: 20 mg/kg by gavage, 3 weeks
Method: First, 1×10^6 cells of human hepatocellular carcinoma BEL-7402 cell lines were injected subcutaneously (sc) into the forelimbs of BALB/c male nude mice, and the mice with tumor were killed after the tumor was formed, the skin of the mice was cut off, and the complete tumor tissue was separated and removed, and then immersed into physiological saline and cut into pieces with diameter of 2 mm. The tumor tissue pieces were implanted subcutaneously into the forelimbs of nude mice in another group for drug experiments. The nude mice with tumor were randomly divided equally into an experimental group and control group, with 10 mice in each group. […] Experimental data, such as tumor size (i.e., long diameter a and short diameter b), experimental animal weight (g), etc., were recorded regularly, and photographs were taken. Measurement result was recorded every time, and the tumor volume and the ratio of tumor volume to tumor weight were calculated for each animal based on the measurement results.
Formula for calculating the tumor volume is: v=a×b2/2 (a represents the long diameter of the tumor and b represents the short diameter of the tumor, which are in unit of mm; and V is calculated in unit of mm^3). […]

[3] = tested on: vessel network model formed by culturing adult stem cells and vascular endothlial cells together; test: Formation of vessel network in vitro (adult stem cells co-cultured with vascular endothlial cells); assay type: cell-based, human; details: for lengths of the formed vessel networks (Total Tube Length, TL): co-culture six days
Method: First, we constructed a vessel network model formed by culturing adult stem cells and vascular endothlial cells together. Adult stem cells have the function of differentiating into pericytes, and can secrete cytokines required for angiogenesis to promote the formation of new vessels. The isolated and cultured adult stem cells were cultured using EGM medium for 3-6 generations to be used. The isolated and cultured human endothlial cells were derived from the cord blood of healthy infants (38-40 weeks), in which monocytes were removed by gradient centrifugation, and the cells were cultured in EGM medium to obtain primary vascular endothlial cells, and 4-8 generations were applied after passage. The adult stem cells were implanted into a cell culture dish, maintaining cell density of 6×10^6/cm^2, and the vascular endothlial cells were implanted on the trophoblast cells of the adult stem cells after the adult stem cells were incubated at 37° C., 5% CO2 for 3 hours, and the cell density of the vascular endothlial cells reached 1×10^6/cm^2. The two kinds of cells were co-cultured for six days, then the formation of tubular networks was observed, and the new vessel networks were labeled through CD31 fluorescence staining and horseradish peroxidase staining.
Different doses of 3,4-diacetyl phenethyl caffeate (prepared according to conventional chemical method by the Laboratory of Peking University Health Science center) were co-cultured with the in vitro vessel network system. […] However, there is no significant difference among the total numbers of ECs of CD31+ in respective groups. The total numbers of ECs in the control group, DMSO group, 5 μm group, 10 μm group, 20 μm group, 50 μm group and 100 μm group are 7.52±1.24/mm^2, 8.66±1.31/mm^2, 8.87±1.59/mm^2, 6.0±1.72/mm^2, 6.22±1.42/mm^2, […], 8.33±0.79/mm^2 respectively, and there is no significant difference among respective groups through analysis.

O=C(/C=C/c1ccc(O)c(O)c1)OCCc1ccccc1 [phenethyl caffeate]
Length of the formed vessel network (Total Tube Length, TL, n = 8) ([1]; 50 μM): 332 ± 24
Length of the formed vessel network (Total Tube Length, TL, n = 8) ([1]; 100 μM): 314 ± 27
effect on tumor angiogenesis mediated by pericytes [1]: no inhibitory effect

CC(=O)Oc1ccc(/C=C/C(=O)OCCc2ccccc2)cc1OC(C)=O [3,4-diacetyl phenethyl caffeate]
Length of the formed vessel network (Total Tube Length, TL, n = 8) ([1]; 50 μM): 114 ± 20
Length of the formed vessel network (Total Tube Length, TL, n = 8) ([1]; 100 μM): 20 ± 11
effect on tumor angiogenesis mediated by pericytes [1]: inhibitory effect
effect on tumor angiogenesis mediated by pericytes ([1]; listed as diacetyl phenethyl caffeate): significant inhibitory effect
effect on the growth of tumors ([2]; result in words): inhibitory effect
average tumor volume of the mice ([2]; six days every week, FIG. 2): maintained at the original level, with no significant changes
numbers of branchs (NB) of the vessels ([3]; 50 μM group): 0.13±0.026 /mm^2
lengths of the formed vessel networks (Total Tube Length, TL) ([3]; 50 μM group): 0.084±0.032 mm/mm^2
numbers of branchs (NB) of the vessels ([3]; 5 μm group): 6.12±0.48 /mm^2
total numbers of ECs (CD31+) ([3]; 5 μm group): 8.87±1.59 /mm^2
lengths of the formed vessel networks (Total Tube Length, TL) ([3]; 5 μm group): 2.802±0.212 mm/mm^2
numbers of branchs (NB) of the vessels ([3]; 10 μm group): 1.55±0.17 /mm^2
total numbers of ECs (CD31+) ([3]; 10 μm group): 6.0±1.72 /mm^2
lengths of the formed vessel networks (Total Tube Length, TL) ([3]; 10 μm group): 0.874±0.117 mm/mm^2
numbers of branchs (NB) of the vessels ([3]; 20 μm group): 0.50±0.063 /mm^2
total numbers of ECs (CD31+) ([3]; 20 μm group): 6.22±1.42 /mm^2
lengths of the formed vessel networks (Total Tube Length, TL) ([3]; 20 μm group): 0.337±0.89 mm/mm^2
numbers of branchs (NB) of the vessels ([3]; 100 μm group): 0.04±0.001 /mm^2
total numbers of ECs (CD31+) ([3]; 100 μm group): 8.33±0.79 /mm^2
lengths of the formed vessel networks (Total Tube Length, TL) ([3]; 100 μm group): 0.0054±0.002 mm/mm^2
effect on the formation of vessel networks in vitro ([3]; result in words): inhibitory effect
